Laboratory results: paper PMC7562719, “Discovery of a CNS penetrant small molecule SMN2 splicing modulator with improved tolerability for spinal muscular atrophy” (Scientific Reports, 2020)

Experiments:
SMN protein = SMN protein in iPSC-derived motor neurons (HTRF, western blot); format: cell-based, human; settings: iPSC-derived motor neurons (GM24468), 3 days
Procedure: GM03813 fibroblasts and GM24468-derived MNs were seeded at 1.5 × 10^4 and 4 × 10^4 cells/well in 96-well plates and were treated with TEC-1 or SMN-C3 for 72 h at the concentration of 0.01, 0.03, 0.1, 0.3, 1, or 3 µM. After 72 h exposure of compound, GM24468 derived MNs and GM03813 fibroblasts were washed once with D-PBS (-), lysed with RIPA buffer (Wako) containing cOmplete (Sigma-Aldrich) and PhosSTOP (Sigma-Aldrich). The lysates were spun at 15,000 rpm for 15 min at 4 °C, and the supernatants were collected. The protein concentration was quantified with BCA kit (Wako). The lysates, adjusted to have the same protein amount, were mixed with NuPAGE LDS sample buffer containing DTT and heated at 95 °C for 5 min. Except for HTT detection, each sample (2 µg total protein/lane) was loaded Perfect NT Gel 7.5–15% gel (DRC, Japan) and run at 150 V for 60–70 min with Tris/glycine/SDS running buffer (BIO-RAD, USA). […] After washing with TBS-T four times, chemiluminescence signals were detected by Immunostar Zeta (Wako) and LAS-4000 (GE healthcare). […]
SMN protein concentration of the cells were quantified using an SMN HTRF kit[15] […] The fluorescence emission was read at two different wavelengths (665 nm and 620 nm or 615 nm) using an Envision plate reader (PerkinElmer, USA) excited by 320 nm. The concentration of protein in each cell lysate were measured by BCA kit (BIO-RAD) and used for normalization.

SMNΔ7 mice = assay: murine model of SMA (SMNΔ7 mice): survival, body weight, righting reflex; format: in vivo, mouse; settings: for SMA mice that survived / survivors at P65 / total mice: 20 mg/kg; for survivors at P65 / total mice: SMA mice
Procedure: A pair of heterozygous SMNΔ7 mice[28] (mSmn+/−, SMN2+/+, SMNΔ7+/+) were purchased from Jackson Laboratory (USA, stock number 005025). The homozygous SMNΔ7 mice (affected and referred to as “SMNΔ7 mice”; mSmn−/−, SMN2+/+, SMNΔ7+/+) was generated by cross-bleeding of heterozygous SMNΔ7 mice. All experiments were approved and monitored by the animal experiment committee of Gifu Pharmaceutical University and were performed after approval by the Bioethics and Biosafety Committee of Gifu Pharmaceutical University. All procedures relating to animal care and treatment confirmed to animal care guidelines issued by the National Institutes of Health.
SMNΔ7 mice were treated with 2, 6, and 20 mg/kg TEC-1 (succinate) once a day by intraperitoneal injection (TERUMO, Japan) from P2 to P23. TEC-1 was diluted in 0.9% NaCl (aqueous) for intraperitoneal injection. After P24, TEC-1 was administrated one a day orally using 0.4 × 0.7 mm feeding needle (Primetech Corporation, Japan). For oral administration, TEC-1 was diluted in distilled water (Otsuka Pharmaceutical Factory, Japan). Heterozygous mice received equal volumes of vehicle.
Survival and body weight were assessed daily. Righting reflex test[15] tests were performed […] at P6, 11 and 16. Righting time was defined as the time it took a pup to turn over to its front after being placed completely on its back (maximum 60 s). Dead individuals were set to 60 s.

Cc1cn2nc(-c3nc4ccc(N5CCN(C)CC5)cc4c(=O)[nH]3)cc2c(C)n1 [TEC-1, 2-(4,6-dimethylpyrazolo[1,5-a]pyrazin-2-yl)-6-(4-methylpiperazin-1-yl)quinazolin-4(3H)-one]
concentration that increased SMA protein (SMN protein): 100 nM | righting reflex latency compared to vehicle-treated mice (SMNΔ7 mice; 2 mg/kg, P16): significantly shortened latency time | SMA mice that survived (SMNΔ7 mice; administered intraperitoneally throughout): 66% | SMA mice that survived (SMNΔ7 mice; oral administration after weaning): 40% | body mass compared to vehicle-treated SMNΔ7 mice (SMNΔ7 mice; 2, 6, 20 mg/kg once a day): increased body mass | survival compared with vehicle-treated SMNΔ7 mice (SMNΔ7 mice; 2, 6, 20 mg/kg once a day, Kaplan–Meier to P65): enhanced the survival | survivors at P65 / total mice (SMNΔ7 mice; 20 mg/kg once daily (i.p. P2-P23, then p.o.)): 4 of 10 | survivors at P65 / total mice (SMNΔ7 mice; 20 mg/kg once daily (i.p.-i.p.), TEC-1 succinate): 2 of 3 | survival until weaning (SMNΔ7 mice; all SMA model mice, 20 mg/kg intraperitoneally): survived until weaning
